Data: patent US11083725B2 (priority 2014, dated 2021)

System: NHBE cells
Assay: Biolog metabolic array: substrate use by NHBE cells with or without CA09 infection
Format: cell-based, human
Settings: for Substrate use, 590 nm absorbance normalized to zero hour, 1 hr: Biolog PMM2, 1 hr; for Substrate use, 590 nm absorbance normalized to zero hour, 5 hr: Biolog PMM2, 5 hr; for Substrate use, 590 nm absorbance normalized to zero hour, 7 hr: Biolog PMM2, 7 hr; for Substrate use, 590 nm absorbance normalized to zero hour, 0 hr: Biolog PMM2, 0 hr
[1] = Control (uninfected) NHBE cells
[2] = Virus (CA09-infected NHBE cells, MOI 1)
[3] = Virus: CA09-infected NHBE cells, MOI 1, Biolog PMM2
[4] = Virus (CA09, MOI 1) infected NHBE cells
[5] = Virus (CA09-infected, MOI 1) NHBE cells

Structure (SMILES) | 590 nm absorbance normalized to zero hour (substrate use), 1 hr [1] | 590 nm absorbance normalized to zero hour (substrate use), 2 hr [1] | 590 nm absorbance normalized to zero hour (substrate use), 3 hr [1] | 590 nm absorbance normalized to zero hour (substrate use), 4 hr [1] | 590 nm absorbance normalized to zero hour (substrate use), 6 hr [1] | 590 nm absorbance normalized to zero hour (substrate use), 8 hr [1] | 590 nm absorbance normalized to zero hour (substrate use), 9 hr [1] | 590 nm absorbance normalized to zero hour (substrate use), 10 hr [1] | 590 nm absorbance normalized to zero hour (substrate use), 11 hr [1] | Substrate use, 590 nm absorbance normalized to zero hour, 1 hr [1] | Substrate use, 590 nm absorbance normalized to zero hour, 5 hr [1] | Substrate use, 590 nm absorbance normalized to zero hour, 7 hr [1] | 590 nm absorbance normalized to zero hour (substrate use), 1 hr [2] | 590 nm absorbance normalized to zero hour (substrate use), 2 hr [2] | 590 nm absorbance normalized to zero hour (substrate use), 3 hr [2] | 590 nm absorbance normalized to zero hour (substrate use), 4 hr [2] | 590 nm absorbance normalized to zero hour (substrate use), 5 hr [2] | 590 nm absorbance normalized to zero hour (substrate use), 6 hr [2] | 590 nm absorbance normalized to zero hour (substrate use), 7 hr [2] | 590 nm absorbance normalized to zero hour (substrate use), 8 hr [2] | further results
OC[C@@H](O)[C@@H](O)[C@@H](O)CO [Adonitol] | 0.57 | 0.78 | 0.93 | 0.98 | 1.35 | 1.40 | 1.55 | 1.43 | 1.46 | 0.57 | 1.16 | 1.28 | 0.21 | 0.26 | 0.29 | 0.31 | 0.34 | 0.36 | 0.38 | 0.39 | 590 nm absorbance normalized to zero hour (substrate use), 9 hr [2]: 0.42; 590 nm absorbance normalized to zero hour (substrate use), 10 hr [2]: 0.44; 590 nm absorbance normalized to zero hour (substrate use), 11 hr [2]: 0.43; 590 nm absorbance normalized to zero hour (substrate use), 1 hr [3]: 0.21; 590 nm absorbance normalized to zero hour (substrate use), 2 hr [3]: 0.26; 590 nm absorbance normalized to zero hour (substrate use), 3 hr [3]: 0.29; 590 nm absorbance normalized to zero hour (substrate use), 4 hr [3]: 0.31; 590 nm absorbance normalized to zero hour (substrate use), 5 hr [3]: 0.34; 590 nm absorbance normalized to zero hour (substrate use), 6 hr [3]: 0.36; 590 nm absorbance normalized to zero hour (substrate use), 7 hr [3]: 0.38; 590 nm absorbance normalized to zero hour (substrate use), 8 hr [3]: 0.39; 590 nm absorbance normalized to zero hour (substrate use), 9 hr [3]: 0.42; 590 nm absorbance normalized to zero hour (substrate use), 10 hr [3]: 0.44; 590 nm absorbance normalized to zero hour (substrate use), 11 hr [3]: 0.43
CO[C@H]1O[C@H](CO)[C@@H](O)[C@H](O)[C@H]1O [a-Methyl-D-Glucoside] | 1.18 | 1.07 | 1.02 | 0.58 | 0.90 | 0.74 | 0.79 | 0.83 | 0.93 | 1.18 | 0.76 | 0.68 |  |  |  |  |  |  |  |  | 590 nm absorbance normalized to zero hour (substrate use), 0 hr [1]: 1.00; Substrate use, 590 nm absorbance normalized to zero hour, 0 hr [1]: 1.00; Substrate use, 590 nm absorbance normalized to zero hour, 0 hr [4]: 1.00; Substrate use, 590 nm absorbance normalized to zero hour, 1 hr [4]: 1.29; Substrate use, 590 nm absorbance normalized to zero hour, 5 hr [4]: 2.31; Substrate use, 590 nm absorbance normalized to zero hour, 7 hr [4]: 2.67; 590 nm absorbance normalized to zero hour (substrate use), 0 hr [5]: 1.00; 590 nm absorbance normalized to zero hour (substrate use), 1 hr [5]: 1.29; 590 nm absorbance normalized to zero hour (substrate use), 2 hr [5]: 1.66; 590 nm absorbance normalized to zero hour (substrate use), 3 hr [5]: 1.87; 590 nm absorbance normalized to zero hour (substrate use), 4 hr [5]: 1.99; 590 nm absorbance normalized to zero hour (substrate use), 6 hr [5]: 2.50; 590 nm absorbance normalized to zero hour (substrate use), 8 hr [5]: 2.77; 590 nm absorbance normalized to zero hour (substrate use), 9 hr [5]: 3.14; 590 nm absorbance normalized to zero hour (substrate use), 10 hr [5]: 3.10; 590 nm absorbance normalized to zero hour (substrate use), 11 hr [5]: 3.31
OC[C@@H]1OC(O)[C@@H](O)[C@H](O)[C@H]1O (stereo partly drawn) [L-Glucose] | 1.65 | 2.20 | 2.64 | 2.83 | 3.82 | 3.55 | 3.76 | 3.89 | 4.25 | 1.65 | 3.52 | 3.51 | 0.29 | 0.39 | 0.45 | 0.49 | 0.57 | 0.61 | 0.64 | 0.68 | 590 nm absorbance normalized to zero hour (substrate use), 0 hr [1]: 1.00; Substrate use, 590 nm absorbance normalized to zero hour, 0 hr [1]: 1.00; 590 nm absorbance normalized to zero hour (substrate use), 0 hr [2]: 1.00; 590 nm absorbance normalized to zero hour (substrate use), 9 hr [2]: 0.76; 590 nm absorbance normalized to zero hour (substrate use), 10 hr [2]: 0.76; 590 nm absorbance normalized to zero hour (substrate use), 11 hr [2]: 0.86; 590 nm absorbance normalized to zero hour (substrate use), 0 hr [3]: 1.00; 590 nm absorbance normalized to zero hour (substrate use), 1 hr [3]: 0.29; 590 nm absorbance normalized to zero hour (substrate use), 2 hr [3]: 0.39; 590 nm absorbance normalized to zero hour (substrate use), 3 hr [3]: 0.45; 590 nm absorbance normalized to zero hour (substrate use), 4 hr [3]: 0.49; 590 nm absorbance normalized to zero hour (substrate use), 5 hr [3]: 0.57; 590 nm absorbance normalized to zero hour (substrate use), 6 hr [3]: 0.61; 590 nm absorbance normalized to zero hour (substrate use), 7 hr [3]: 0.64; 590 nm absorbance normalized to zero hour (substrate use), 8 hr [3]: 0.68; 590 nm absorbance normalized to zero hour (substrate use), 9 hr [3]: 0.76; 590 nm absorbance normalized to zero hour (substrate use), 10 hr [3]: 0.76; 590 nm absorbance normalized to zero hour (substrate use), 11 hr [3]: 0.86
